Where two headings read alike, the source gives them in different places.
Assays:
Assay in all cases: Kinase inhibitory activity profiling of RI-962@10 µM (406 kinases, Eurofins)
Format in all cases: biochemical
[1] = target: panel of human kinases (kinase named in endpoint) (Homo sapiens, UniProt P42336, E542K); settings: 10 µM; read-out: Activity (%), PI3(p110a(E542K)/p85a)
Procedure, shortened: (§1)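 Radiometric filter-binding kinase assays: enzyme preincubated 15 min with compound in 8 mM MOPS pH 7.0, 0.2 mM EDTA, 250 μM peptide substrate, 10 mM magnesium acetate, 10 μM [γ-33P]-ATP. Reaction started with Mg/ATP, run 40 min at room temperature, stopped with phosphoric acid; 33P incorporation read by scintillation counting. Other kinases by similar protocols.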

[2] = target: panel of human kinases (kinase named in endpoint) (Homo sapiens, UniProt Q9P286); settings: 10 µM; read-out: Activity (%), PAK5(h)
Sequence of panel of human kinases (kinase named in endpoint) (Homo sapiens, UniProt Q9P286) (Q9P286 whole entry): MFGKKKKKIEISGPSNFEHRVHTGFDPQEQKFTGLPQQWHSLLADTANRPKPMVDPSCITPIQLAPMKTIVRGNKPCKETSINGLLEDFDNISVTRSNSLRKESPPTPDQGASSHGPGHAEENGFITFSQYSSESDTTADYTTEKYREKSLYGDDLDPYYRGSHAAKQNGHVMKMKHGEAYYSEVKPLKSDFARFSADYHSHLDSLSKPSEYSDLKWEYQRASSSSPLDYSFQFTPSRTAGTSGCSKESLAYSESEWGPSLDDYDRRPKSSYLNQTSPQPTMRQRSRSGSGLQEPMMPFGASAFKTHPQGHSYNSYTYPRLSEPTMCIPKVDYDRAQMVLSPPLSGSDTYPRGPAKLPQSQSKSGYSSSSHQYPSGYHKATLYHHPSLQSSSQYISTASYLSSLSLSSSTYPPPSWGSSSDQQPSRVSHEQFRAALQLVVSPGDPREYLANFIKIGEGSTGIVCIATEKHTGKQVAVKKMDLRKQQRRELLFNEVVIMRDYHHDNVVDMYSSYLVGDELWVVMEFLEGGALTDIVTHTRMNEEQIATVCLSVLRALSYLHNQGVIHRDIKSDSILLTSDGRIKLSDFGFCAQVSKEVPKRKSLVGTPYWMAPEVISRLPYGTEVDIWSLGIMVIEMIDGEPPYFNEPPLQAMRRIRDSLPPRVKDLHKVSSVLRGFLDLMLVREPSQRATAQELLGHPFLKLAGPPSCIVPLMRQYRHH
Procedure, shortened: as §1

[3] = target: panel of human kinases (kinase named in endpoint) (Homo sapiens, UniProt P35626); settings: 10 µM; read-out: Activity (%), GRK3(h)
Procedure, shortened: as §1

[4] = target: panel of human kinases (kinase named in endpoint) (Homo sapiens, UniProt P00519, Y253F); settings: 10 µM; read-out: Activity (%), Abl(Y253F)(h)
Procedure, shortened: as §1

[5] = target: panel of human kinases (kinase named in endpoint) (Homo sapiens, UniProt Q02750); settings: 10 µM; read-out: Activity (%), MEK1(h)
Procedure, shortened: as §1

[6] = target: panel of human kinases (kinase named in endpoint) (Homo sapiens, UniProt Q96QT4); settings: 10 µM; read-out: Activity (%), ChaK1(h)
Procedure, shortened: as §1

[7] = target: panel of human kinases (kinase named in endpoint) (Homo sapiens, UniProt P06239); settings: 10 µM
Sequence of panel of human kinases (kinase named in endpoint) (Homo sapiens, UniProt P06239) (P06239 whole entry): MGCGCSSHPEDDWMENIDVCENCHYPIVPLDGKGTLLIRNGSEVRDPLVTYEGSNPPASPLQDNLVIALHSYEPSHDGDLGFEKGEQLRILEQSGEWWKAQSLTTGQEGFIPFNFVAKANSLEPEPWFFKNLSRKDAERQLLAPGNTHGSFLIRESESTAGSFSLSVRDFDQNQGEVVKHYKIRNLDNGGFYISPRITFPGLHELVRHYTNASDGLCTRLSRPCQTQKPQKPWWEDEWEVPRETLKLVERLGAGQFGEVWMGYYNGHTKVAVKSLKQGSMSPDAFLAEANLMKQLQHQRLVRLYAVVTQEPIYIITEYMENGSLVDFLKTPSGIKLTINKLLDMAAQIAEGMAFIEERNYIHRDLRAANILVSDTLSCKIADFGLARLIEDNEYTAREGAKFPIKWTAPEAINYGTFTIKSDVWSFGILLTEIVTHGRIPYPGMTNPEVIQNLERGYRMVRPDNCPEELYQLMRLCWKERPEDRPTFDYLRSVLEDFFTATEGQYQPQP
Procedure, shortened: as §1

[8] = target: panel of human kinases (kinase named in endpoint) (Homo sapiens, UniProt Q13043); settings: 10 µM; read-out: Activity (%), MST1(h)
Sequence of panel of human kinases (kinase named in endpoint) (Homo sapiens, UniProt Q13043) (Q13043 whole entry): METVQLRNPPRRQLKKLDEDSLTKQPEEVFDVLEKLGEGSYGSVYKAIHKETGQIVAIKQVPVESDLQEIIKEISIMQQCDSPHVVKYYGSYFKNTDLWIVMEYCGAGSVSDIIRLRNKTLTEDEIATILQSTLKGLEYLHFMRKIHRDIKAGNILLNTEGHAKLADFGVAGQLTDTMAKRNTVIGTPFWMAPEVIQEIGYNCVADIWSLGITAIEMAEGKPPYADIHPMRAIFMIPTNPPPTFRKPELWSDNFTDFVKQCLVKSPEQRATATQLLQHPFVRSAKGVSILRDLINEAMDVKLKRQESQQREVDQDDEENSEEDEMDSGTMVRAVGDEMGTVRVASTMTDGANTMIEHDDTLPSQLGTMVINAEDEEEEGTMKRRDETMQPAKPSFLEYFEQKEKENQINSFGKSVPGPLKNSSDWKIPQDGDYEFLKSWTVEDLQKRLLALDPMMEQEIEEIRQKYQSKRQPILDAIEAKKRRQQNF
Procedure, shortened: as §1

[9] = target: panel of human kinases (kinase named in endpoint) (Homo sapiens, UniProt P42336, E545K); settings: 10 µM; read-out: Activity (%), PI3(p110a(E545K)/p85a)
Procedure, shortened: as §1

[10] = target: panel of human kinases (kinase named in endpoint) (Homo sapiens, UniProt Q8IVH8); settings: 10 µM; read-out: Activity (%), MAP4K3(h)
Procedure, shortened: as §1

[11] = target: panel of human kinases (kinase named in endpoint) (Homo sapiens, UniProt P34947); settings: 10 µM; read-out: Activity (%), GRK5(h)
Procedure, shortened: as §1

[12] = target: panel of human kinases (kinase named in endpoint) (Homo sapiens, UniProt P78527); settings: 10 µM; read-out: Activity (%), DNA-PK(h)
Procedure, shortened: as §1

[13] = target: panel of human kinases (kinase named in endpoint) (Homo sapiens, UniProt Q9UQM7); settings: 10 µM; read-out: Activity (%), CaMKIIα(h)
Procedure, shortened: as §1

[14] = target: panel of human kinases (kinase named in endpoint) (Homo sapiens, UniProt P06241); settings: 10 µM; read-out: Activity (%), Fyn(h)
Procedure, shortened: as §1

[15] = target: panel of human kinases (kinase named in endpoint) (Homo sapiens, UniProt Q16513); settings: 10 µM; read-out: Activity (%), PRK2(h)
Sequence of panel of human kinases (kinase named in endpoint) (Homo sapiens, UniProt Q16513) (Q16513 whole entry): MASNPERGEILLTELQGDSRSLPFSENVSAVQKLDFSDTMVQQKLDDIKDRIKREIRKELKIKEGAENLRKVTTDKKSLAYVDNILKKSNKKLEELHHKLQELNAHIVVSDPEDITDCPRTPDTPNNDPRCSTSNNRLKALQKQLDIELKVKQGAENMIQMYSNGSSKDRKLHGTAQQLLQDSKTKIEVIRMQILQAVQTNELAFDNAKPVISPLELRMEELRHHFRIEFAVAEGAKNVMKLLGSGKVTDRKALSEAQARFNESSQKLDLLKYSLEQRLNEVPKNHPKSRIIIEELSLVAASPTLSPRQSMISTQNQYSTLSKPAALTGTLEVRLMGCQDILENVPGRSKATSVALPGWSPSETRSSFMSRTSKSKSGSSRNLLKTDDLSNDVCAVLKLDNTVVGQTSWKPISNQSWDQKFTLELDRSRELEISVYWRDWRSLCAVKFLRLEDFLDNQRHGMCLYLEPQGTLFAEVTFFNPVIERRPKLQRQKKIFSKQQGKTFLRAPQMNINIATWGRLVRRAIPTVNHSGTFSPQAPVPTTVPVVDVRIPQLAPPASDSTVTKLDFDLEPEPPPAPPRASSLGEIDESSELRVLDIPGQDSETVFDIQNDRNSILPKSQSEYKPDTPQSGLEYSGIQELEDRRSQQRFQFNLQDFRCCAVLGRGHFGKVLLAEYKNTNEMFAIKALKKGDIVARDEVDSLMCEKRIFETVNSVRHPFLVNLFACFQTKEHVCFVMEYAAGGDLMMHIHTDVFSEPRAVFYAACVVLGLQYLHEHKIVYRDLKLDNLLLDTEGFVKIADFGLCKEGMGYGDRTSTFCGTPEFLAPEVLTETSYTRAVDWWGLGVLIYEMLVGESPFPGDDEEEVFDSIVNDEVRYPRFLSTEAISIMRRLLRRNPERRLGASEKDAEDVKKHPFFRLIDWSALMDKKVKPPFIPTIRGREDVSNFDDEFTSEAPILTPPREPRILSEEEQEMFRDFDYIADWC
Procedure, shortened: as §1

[16] = target: panel of human kinases (kinase named in endpoint) (Homo sapiens, UniProt Q7L7X3); settings: 10 µM; read-out: Activity (%), TAO1(h)
Procedure, shortened: as §1

[17] = target: panel of human kinases (kinase named in endpoint) (Homo sapiens, UniProt O00443); settings: 10 µM; read-out: Activity (%), PI3KC2a(h)
Sequence of panel of human kinases (kinase named in endpoint) (Homo sapiens, UniProt O00443) (O00443 whole entry): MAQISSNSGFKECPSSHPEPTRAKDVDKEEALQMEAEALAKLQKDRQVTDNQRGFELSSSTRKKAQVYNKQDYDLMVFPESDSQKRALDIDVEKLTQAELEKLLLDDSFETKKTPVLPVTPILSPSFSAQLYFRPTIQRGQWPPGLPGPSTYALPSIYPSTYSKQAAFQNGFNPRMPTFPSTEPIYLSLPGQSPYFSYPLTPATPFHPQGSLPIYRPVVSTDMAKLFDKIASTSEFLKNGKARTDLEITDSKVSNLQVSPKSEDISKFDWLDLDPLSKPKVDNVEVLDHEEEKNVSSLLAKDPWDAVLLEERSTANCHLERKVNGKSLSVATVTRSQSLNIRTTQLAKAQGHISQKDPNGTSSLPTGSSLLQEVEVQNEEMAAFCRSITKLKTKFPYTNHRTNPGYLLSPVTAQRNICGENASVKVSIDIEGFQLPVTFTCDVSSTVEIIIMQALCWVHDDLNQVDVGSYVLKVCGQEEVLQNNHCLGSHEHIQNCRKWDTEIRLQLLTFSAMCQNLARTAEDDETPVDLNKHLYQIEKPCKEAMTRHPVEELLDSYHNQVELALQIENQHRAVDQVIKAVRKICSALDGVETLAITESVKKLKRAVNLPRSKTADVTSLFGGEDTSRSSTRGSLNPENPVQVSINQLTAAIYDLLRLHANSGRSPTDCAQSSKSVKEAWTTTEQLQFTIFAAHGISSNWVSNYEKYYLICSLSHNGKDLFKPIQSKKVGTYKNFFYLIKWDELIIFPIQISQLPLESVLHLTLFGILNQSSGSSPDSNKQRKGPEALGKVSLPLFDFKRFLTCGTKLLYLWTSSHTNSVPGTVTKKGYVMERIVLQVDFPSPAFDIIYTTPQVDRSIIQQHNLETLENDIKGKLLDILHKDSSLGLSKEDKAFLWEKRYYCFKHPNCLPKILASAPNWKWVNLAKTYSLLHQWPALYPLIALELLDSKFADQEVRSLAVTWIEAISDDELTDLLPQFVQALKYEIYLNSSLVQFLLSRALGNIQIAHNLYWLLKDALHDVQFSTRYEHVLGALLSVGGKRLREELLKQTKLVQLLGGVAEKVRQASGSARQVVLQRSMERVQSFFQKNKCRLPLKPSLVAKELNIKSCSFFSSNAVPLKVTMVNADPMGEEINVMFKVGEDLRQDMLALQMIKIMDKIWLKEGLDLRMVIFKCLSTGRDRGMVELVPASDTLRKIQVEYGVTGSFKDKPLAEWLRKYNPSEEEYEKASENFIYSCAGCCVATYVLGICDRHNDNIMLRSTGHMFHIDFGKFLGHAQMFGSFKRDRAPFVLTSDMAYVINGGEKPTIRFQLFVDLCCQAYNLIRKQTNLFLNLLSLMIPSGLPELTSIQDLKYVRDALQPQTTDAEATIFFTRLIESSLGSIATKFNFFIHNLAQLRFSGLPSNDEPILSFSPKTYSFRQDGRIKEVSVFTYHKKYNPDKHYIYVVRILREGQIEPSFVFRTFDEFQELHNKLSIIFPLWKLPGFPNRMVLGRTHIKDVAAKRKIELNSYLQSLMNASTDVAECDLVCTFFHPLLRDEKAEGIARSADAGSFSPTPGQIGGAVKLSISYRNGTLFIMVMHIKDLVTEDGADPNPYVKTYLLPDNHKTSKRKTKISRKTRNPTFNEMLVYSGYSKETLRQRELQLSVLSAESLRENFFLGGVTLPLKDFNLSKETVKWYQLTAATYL
Procedure, shortened: as §1

[18] = target: panel of human kinases (kinase named in endpoint) (Homo sapiens, UniProt Q9H4A3); settings: 10 µM; read-out: Activity (%), WNK1(h)
Procedure, shortened: as §1

[19] = target: panel of human kinases (kinase named in endpoint) (Homo sapiens, UniProt Q16816); settings: 10 µM; read-out: Activity (%), PhKγ1(h)
Procedure, shortened: as §1

[20] = target: panel of human kinases (kinase named in endpoint) (Homo sapiens, UniProt P29320); settings: 10 µM; read-out: Activity (%), EphA3(h)
Procedure, shortened: as §1

[21] = target: panel of human kinases (kinase named in endpoint) (Homo sapiens, UniProt P53671); settings: 10 µM; read-out: Activity (%), LIMK2(h)
Procedure, shortened: as §1

[22] = target: panel of human kinases (kinase named in endpoint) (Homo sapiens, UniProt Q92918); settings: 10 µM; read-out: Activity (%), HPK1(h)
Procedure, shortened: as §1

[23] = target: panel of human kinases (kinase named in endpoint) (Homo sapiens, UniProt Q92519); settings: 10 µM; read-out: Activity (%), TRB2(h)
Procedure, shortened: as §1

[24] = target: panel of human kinases (kinase named in endpoint) (Homo sapiens, UniProt Q04912); settings: 10 µM; read-out: Activity (%), Ron(h)
Procedure, shortened: as §1

[25] = target: panel of human kinases (kinase named in endpoint) (Homo sapiens, UniProt P41743); settings: 10 µM; read-out: Activity (%), PKCι(h)
Sequence of panel of human kinases (kinase named in endpoint) (Homo sapiens, UniProt P41743) (P41743 whole entry): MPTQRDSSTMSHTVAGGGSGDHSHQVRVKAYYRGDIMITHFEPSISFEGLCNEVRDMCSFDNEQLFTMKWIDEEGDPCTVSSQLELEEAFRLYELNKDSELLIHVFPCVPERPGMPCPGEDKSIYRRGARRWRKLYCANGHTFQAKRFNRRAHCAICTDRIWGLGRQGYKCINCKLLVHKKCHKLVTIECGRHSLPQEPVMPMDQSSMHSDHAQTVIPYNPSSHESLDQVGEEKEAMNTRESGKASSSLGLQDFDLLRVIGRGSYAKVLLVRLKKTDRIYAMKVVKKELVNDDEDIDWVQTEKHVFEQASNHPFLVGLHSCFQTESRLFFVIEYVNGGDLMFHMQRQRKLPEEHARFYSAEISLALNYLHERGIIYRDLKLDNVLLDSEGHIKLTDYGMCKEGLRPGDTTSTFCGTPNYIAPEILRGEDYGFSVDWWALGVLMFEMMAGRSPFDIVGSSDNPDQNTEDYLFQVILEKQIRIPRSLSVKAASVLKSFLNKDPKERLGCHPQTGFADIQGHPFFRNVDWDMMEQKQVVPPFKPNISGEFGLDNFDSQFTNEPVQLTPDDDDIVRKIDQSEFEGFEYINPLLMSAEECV
Procedure, shortened: as §1

Work on `CC(C)C(=O)Nc1nc2cc(-c3ccc4c(c3)c(C(=O)NC(C)c3ccccc3)cn4C)ccn2n1` (centres unmarked) [RI-962] yielded an activity at 10 µM [1] of 97%, an activity at 10 µM [2] of 93% and an activity at 10 µM [3] of 92%. For the same compound, the activity at 10 µM [4] was 102%, the activity at 10 µM [5] was 105% and the activity at 10 µM [6] was 85%. The activity at 10 µM ([7]; read-out: Activity (%), Lck(h)) was 137%, the activity at 10 µM ([7]; read-out: Activity (%), Lck(h) activated) was 81% and the activity at 10 µM [8] was 95%. The activity at 10 µM [9] was 96%, the activity at 10 µM [10] was 85% and the activity at 10 µM [11] was 80%. It also gave an activity at 10 µM [12] of 100%, an activity at 10 µM [13] of 93% and an activity at 10 µM [14] of 107%. It also gave an activity at 10 µM [15] of 101%, an activity at 10 µM [16] of 81% and an activity at 10 µM [17] of 102%. For the same compound, the activity at 10 µM [18] was 75%, the activity at 10 µM [19] was 98% and the activity at 10 µM [20] was 105%. The activity at 10 µM [21] was 101%, the activity at 10 µM [22] was 92% and the activity at 10 µM [23] was 91%. For the same compound, the activity at 10 µM [24] was 104% and the activity at 10 µM [25] was 97%.

Source: publication PMC9653409, “Generative deep learning enables the discovery of a potent and selective RIPK1 inhibitor” (Nature Communications, 2022)
